Data published in patent US7611853B2, “Assay to screen for anti-malarials” (priority 2002, dated 2009).

Legend:
Plasmodium falciparum = test: Growth inhibitory effect of GA on synchronous parasites (Giemsa-stained smears); assay type: cell-based
From the text: In order to check if GA could inhibit Plasmodium falciparum growth in vitro, we prepared highly synchronous ring-infected parasites using 5% sorbitol. These ring-staged parasites were suspended in RPMI to make 5% hematocrit. […] This correlates with elevated expression of Pfhsp90 in the trophozoite stage compared to ring stage.

[1] = tested on: Plasmodium falciparum ring-infected erythrocytes; test: Anti-malarial effect of GA and HA on overall parasitemia (giemsa staining); assay type: cell-based
Experimental: To show the effects of GA on overall parasitemia, ring-infected erythrocytes were either treated with DMSO or with 5 μM GA for 48 hrs (culture was replenished with medium and GA every 24 hrs) and parasitemia was calculated by giemsa staining. While the mock-treated parasites multiplied at the end of 48 hrs, parasitemia was reduced to 50 percent in GA treated cultures by 48 hrs.

Structure (SMILES): COC1=C2C[C@@H](C)C[C@H](OC)[C@H](O)[C@@H](C)/C=C(\C)[C@H](OC(N)=O)[C@@H](OC)/C=C\C=C(/C)C(=O)NC(=CC1=O)C2=O [GA, Geldanamycin]
- inhibition at 10 µM (Plasmodium falciparum; Plasmodium falciparum, GA added in the trophozoite stage, 10 μM): 100%
- concentration of maximal growth inhibition (Plasmodium falciparum; ring-staged parasites, 24 h): 5 µM
- parasitemia reduced to ([1]; ring-infected erythrocytes, 5 μM, 48 hrs, replenished every 24 hrs): 50%

Structure (SMILES): CO[C@H]1[C@@H](OC)C[C@H](C)[C@@H](OC)C2=CC(=O)C=C(NC(=O)/C(C)=C/C=C\[C@H](OC)[C@@H](OC(N)=O)/C(C)=C/[C@@H]1C)C2=O [HA, Herbimycin A]
- anti-malarial effect (summary statement) [1]: kill the malarial parasite at the stage of early trophozoite development
- concentration of maximal reduction in parasitemia ([1]; 0.5, 1, 5 and 10 μM tested, 48 hrs): 10 µM
